Source: patent publication EP4722207A1, “OXOISOINDOLINYL-SUBSTITUTED TETRAHYDROPYRIMIDINEDIONE DERIVATIVE AND USE THEREOF” (Gluetacs Therapeutics (Shanghai) Co., Ltd., priority 2023, dated 2024)

Assays:
Assay type in all cases: cell-based
Conditions in all cases: compounds at 50 nM and 500 nM, 24 hours
IKZF1 = molecular target: T1, IKZF1 (Homo sapiens, UniProt Q13422+Q96SW2); assay: Western-blot assay, substrate protein degradation in hPBMCs: IKZF1
T1 construct: effects of the compounds of the present disclosure on the expression of target proteins in cells; endogenous in cells; host or cells: human PBMCs (hPBMCs)

WEE1 = molecular target: T2, WEE1 (Homo sapiens, UniProt P30291+Q96SW2); assay: Western-blot assay, substrate protein degradation in hPBMCs: WEE1
T2 construct: effects of the compounds of the present disclosure on the expression of target proteins in cells; endogenous in cells; host or cells: human PBMCs (hPBMCs)

GSPT1 = molecular target: T3, GSPT1 (Homo sapiens, UniProt P15170+Q96SW2); assay: Western-blot assay, substrate protein degradation in hPBMCs: GSPT1
T3 construct: effects of the compounds of the present disclosure on the expression of target proteins in cells; endogenous in cells; host or cells: human PBMCs (hPBMCs)

CK1α = molecular target: T4, CK1α (Homo sapiens, UniProt P48729+Q96SW2); assay: Western-blot assay, substrate protein degradation in hPBMCs: CK1α
T4 construct: effects of the compounds of the present disclosure on the expression of target proteins in cells; endogenous in cells; host or cells: human PBMCs (hPBMCs)

IKZF2 = molecular target: T5, IKZF2 (Homo sapiens, UniProt Q96SW2+Q9UKS7); assay: Western-blot assay, substrate protein degradation in hPBMCs: IKZF2
T5 construct: effects of the compounds of the present disclosure on the expression of target proteins in cells; endogenous in cells; host or cells: human PBMCs (hPBMCs)

IKZF3 = molecular target: T6, IKZF3 (Homo sapiens, UniProt Q96SW2+Q9UKT9); assay: Western-blot assay, substrate protein degradation in hPBMCs: IKZF3
T6 construct: effects of the compounds of the present disclosure on the expression of target proteins in cells; endogenous in cells; host or cells: human PBMCs (hPBMCs)
T6 sequence (Q9UKT9 whole entry): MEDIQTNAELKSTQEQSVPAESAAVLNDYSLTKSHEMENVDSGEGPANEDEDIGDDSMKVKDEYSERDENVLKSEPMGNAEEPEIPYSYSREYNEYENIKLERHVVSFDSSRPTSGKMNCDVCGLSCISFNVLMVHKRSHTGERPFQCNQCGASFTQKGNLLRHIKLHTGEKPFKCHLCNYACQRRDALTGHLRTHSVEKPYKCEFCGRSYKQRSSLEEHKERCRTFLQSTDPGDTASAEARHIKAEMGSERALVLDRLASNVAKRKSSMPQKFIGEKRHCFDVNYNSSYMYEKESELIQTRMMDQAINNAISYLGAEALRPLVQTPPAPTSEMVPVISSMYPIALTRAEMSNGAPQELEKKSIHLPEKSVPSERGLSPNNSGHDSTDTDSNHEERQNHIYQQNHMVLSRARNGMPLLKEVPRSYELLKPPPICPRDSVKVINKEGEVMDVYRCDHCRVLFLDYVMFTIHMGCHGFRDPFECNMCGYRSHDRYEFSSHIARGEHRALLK
T6 sequence (Q96SW2 whole entry): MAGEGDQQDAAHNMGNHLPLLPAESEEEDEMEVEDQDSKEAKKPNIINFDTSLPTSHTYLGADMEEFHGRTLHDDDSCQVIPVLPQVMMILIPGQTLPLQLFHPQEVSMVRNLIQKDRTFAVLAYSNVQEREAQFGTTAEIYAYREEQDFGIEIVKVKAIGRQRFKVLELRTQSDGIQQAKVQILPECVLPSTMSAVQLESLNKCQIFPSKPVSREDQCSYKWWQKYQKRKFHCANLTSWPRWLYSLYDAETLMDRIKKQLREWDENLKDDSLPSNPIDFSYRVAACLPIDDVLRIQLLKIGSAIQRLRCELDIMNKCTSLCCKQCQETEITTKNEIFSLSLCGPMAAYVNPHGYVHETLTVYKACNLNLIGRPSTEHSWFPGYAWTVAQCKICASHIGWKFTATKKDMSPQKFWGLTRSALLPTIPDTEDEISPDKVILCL
T6 sequence (Q16531 whole entry partner): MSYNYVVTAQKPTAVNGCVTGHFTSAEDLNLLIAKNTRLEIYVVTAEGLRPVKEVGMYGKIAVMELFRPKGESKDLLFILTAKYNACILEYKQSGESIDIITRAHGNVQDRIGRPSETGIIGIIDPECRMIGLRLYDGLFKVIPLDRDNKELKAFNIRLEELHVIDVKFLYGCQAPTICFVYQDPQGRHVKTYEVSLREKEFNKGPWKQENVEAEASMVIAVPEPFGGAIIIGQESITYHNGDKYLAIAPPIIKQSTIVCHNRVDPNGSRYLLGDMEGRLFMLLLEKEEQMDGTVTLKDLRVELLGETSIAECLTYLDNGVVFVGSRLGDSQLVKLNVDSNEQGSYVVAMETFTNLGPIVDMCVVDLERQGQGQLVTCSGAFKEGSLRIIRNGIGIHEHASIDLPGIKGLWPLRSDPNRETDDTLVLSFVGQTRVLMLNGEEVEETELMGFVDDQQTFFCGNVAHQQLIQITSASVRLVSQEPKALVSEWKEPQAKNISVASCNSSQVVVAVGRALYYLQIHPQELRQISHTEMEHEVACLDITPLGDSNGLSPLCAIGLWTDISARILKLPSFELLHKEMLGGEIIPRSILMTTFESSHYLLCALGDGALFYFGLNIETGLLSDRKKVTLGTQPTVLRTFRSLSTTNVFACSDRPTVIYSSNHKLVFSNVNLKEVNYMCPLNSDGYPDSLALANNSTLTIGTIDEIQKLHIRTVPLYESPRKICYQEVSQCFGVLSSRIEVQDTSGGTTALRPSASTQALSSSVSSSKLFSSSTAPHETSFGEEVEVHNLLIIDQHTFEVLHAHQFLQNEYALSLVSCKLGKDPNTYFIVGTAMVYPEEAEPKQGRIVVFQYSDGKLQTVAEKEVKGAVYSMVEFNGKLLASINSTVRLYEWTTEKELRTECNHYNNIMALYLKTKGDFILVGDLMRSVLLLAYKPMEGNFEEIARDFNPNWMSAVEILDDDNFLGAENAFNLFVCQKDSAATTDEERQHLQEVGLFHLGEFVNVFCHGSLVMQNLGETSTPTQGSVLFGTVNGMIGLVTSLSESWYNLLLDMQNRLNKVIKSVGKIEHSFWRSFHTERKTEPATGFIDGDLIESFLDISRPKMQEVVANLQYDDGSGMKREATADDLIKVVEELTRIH

T2 sequence (P30291 whole entry): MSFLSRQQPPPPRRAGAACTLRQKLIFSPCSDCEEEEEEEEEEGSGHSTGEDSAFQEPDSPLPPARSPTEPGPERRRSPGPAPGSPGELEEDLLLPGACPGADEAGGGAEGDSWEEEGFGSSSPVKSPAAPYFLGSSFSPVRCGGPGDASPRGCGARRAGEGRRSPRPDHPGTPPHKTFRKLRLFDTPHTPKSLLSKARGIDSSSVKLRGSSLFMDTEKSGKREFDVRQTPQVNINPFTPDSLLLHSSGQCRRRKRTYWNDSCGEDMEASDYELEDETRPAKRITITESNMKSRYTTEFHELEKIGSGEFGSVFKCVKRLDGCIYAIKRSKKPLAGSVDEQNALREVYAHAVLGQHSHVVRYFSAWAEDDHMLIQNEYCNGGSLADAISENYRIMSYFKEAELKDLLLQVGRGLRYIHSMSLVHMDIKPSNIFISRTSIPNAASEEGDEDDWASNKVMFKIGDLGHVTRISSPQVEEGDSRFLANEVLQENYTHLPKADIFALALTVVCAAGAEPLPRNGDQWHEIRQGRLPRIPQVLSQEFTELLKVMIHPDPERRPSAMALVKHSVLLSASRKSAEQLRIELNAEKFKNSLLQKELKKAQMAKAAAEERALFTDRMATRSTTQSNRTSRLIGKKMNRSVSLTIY
T2 sequence (Q96SW2 whole entry): as the sequence (Q96SW2 whole entry) above
T2 sequence (Q16531 whole entry partner): as the sequence (Q16531 whole entry partner) above
T1 sequence (Q13422 whole entry): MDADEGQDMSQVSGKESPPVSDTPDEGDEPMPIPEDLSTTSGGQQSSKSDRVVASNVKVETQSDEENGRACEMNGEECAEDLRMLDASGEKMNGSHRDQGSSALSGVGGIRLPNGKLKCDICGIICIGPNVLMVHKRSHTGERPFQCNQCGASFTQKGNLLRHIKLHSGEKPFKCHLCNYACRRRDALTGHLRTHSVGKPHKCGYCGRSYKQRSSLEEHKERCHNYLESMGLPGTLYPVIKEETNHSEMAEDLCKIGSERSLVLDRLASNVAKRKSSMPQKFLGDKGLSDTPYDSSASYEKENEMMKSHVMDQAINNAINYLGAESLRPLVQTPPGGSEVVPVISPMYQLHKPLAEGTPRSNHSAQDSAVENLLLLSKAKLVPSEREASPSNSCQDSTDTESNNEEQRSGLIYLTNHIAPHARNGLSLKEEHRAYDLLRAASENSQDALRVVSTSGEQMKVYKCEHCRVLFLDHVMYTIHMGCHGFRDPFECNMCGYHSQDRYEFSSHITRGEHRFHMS
T1 sequence (Q96SW2 whole entry): as the sequence (Q96SW2 whole entry) above
T1 sequence (Q16531 whole entry partner): as the sequence (Q16531 whole entry partner) above
T5 sequence (Q9UKS7 whole entry): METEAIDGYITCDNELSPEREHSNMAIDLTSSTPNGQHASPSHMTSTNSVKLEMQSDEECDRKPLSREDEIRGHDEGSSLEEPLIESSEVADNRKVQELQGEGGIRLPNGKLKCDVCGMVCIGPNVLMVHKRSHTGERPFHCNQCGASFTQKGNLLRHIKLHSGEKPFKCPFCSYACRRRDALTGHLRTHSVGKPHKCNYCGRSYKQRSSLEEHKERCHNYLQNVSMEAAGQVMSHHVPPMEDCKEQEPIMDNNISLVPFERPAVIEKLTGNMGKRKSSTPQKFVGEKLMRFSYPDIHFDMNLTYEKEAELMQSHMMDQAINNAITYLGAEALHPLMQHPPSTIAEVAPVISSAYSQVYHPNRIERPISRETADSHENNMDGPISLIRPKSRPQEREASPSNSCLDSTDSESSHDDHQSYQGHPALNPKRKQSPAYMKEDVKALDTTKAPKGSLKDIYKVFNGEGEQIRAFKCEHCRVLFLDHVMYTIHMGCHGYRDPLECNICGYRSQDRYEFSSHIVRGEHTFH
T5 sequence (Q96SW2 whole entry): as the sequence (Q96SW2 whole entry) above
T5 sequence (Q16531 whole entry partner): as the sequence (Q16531 whole entry partner) above
T4 sequence (P48729 whole entry): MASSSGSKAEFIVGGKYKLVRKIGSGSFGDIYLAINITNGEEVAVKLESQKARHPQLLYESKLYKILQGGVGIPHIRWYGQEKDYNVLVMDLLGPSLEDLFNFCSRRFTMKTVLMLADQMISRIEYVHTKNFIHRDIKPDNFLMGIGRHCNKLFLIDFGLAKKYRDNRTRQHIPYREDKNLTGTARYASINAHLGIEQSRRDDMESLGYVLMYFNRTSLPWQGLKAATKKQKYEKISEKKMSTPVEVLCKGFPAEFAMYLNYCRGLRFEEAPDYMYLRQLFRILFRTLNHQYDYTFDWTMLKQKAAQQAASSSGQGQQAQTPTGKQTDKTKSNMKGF
T4 sequence (Q96SW2 whole entry): as the sequence (Q96SW2 whole entry) above
T4 sequence (Q16531 whole entry partner): as the sequence (Q16531 whole entry partner) above

Row | Structure (SMILES) | IKZF1 substrate protein remaining % (IKZF1) | WEE1 substrate protein remaining % (WEE1) | GSPT1 substrate protein remaining % (GSPT1) | CK1α substrate protein remaining % (CK1α) | IKZF2 substrate protein remaining % (IKZF2) | IKZF3 substrate protein remaining % (IKZF3)
1 | C[C@@H]1CN(C(c2ccccc2)c2ccccc2)CCN1Cc1ccc2c(c1)C(=O)N(N1CCC(=O)NC1=O)C2=O [GT-06449, (R)-5-((4-benzhydryl-2-methylpiperazin-1-yl)methyl)-2-(2,4-dioxotetrahydropyrimidin-1(2H)-yl)isoindoline-1,3-dione] | B ("B" is defined as 80%< substrate protein remaining %≤ 100%) | B ("B" is defined as 80%< substrate protein remaining %≤ 100%) | A ("A" is defined as 0% ≤ substrate protein remaining % ≤ 80%) | B ("B" is defined as 80%< substrate protein remaining %≤ 100%) | A ("A" is defined as 0% ≤ substrate protein remaining % ≤ 80%) | A ("A" is defined as 0% ≤ substrate protein remaining % ≤ 80%)
2 | O=C1CCN(N2C(=O)c3ccc(CN4CC5CCC4CN5C(c4ccccc4)c4ccccc4)cc3C2=O)C(=O)N1 (stereo not drawn) [GT-06451, 5-((5-benzhydryl-2,5-diazabicyclo[2.2.2]octan-2-yl)methyl)-2-(2,4-dioxotetrahydropyrimidin-1(2H)-yl)isoindoline-1,3-dione] | B ("B" is defined as 80%< substrate protein remaining %≤ 100%) | A ("A" is defined as 0% ≤ substrate protein remaining % ≤ 80%) | B ("B" is defined as 80%< substrate protein remaining %≤ 100%) | B ("B" is defined as 80%< substrate protein remaining %≤ 100%) | B ("B" is defined as 80%< substrate protein remaining %≤ 100%) | B ("B" is defined as 80%< substrate protein remaining %≤ 100%)
3 | O=C1CCN(N2Cc3cc(CN4CC5CCC(C4)N5C(c4ccccc4)c4ccccc4)ccc3C2=O)C(=O)N1 [GT-06452, 1-(5-((8-benzhydryl-3,8-diazabicyclo[3.2.1]octan-3-yl)methyl)-1-oxoisoindolin-2-yl)dihydropyrimidine-2,4(1H,3H)-dione] | B ("B" is defined as 80%< substrate protein remaining %≤ 100%) | A ("A" is defined as 0% ≤ substrate protein remaining % ≤ 80%) | B ("B" is defined as 80%< substrate protein remaining %≤ 100%) | B ("B" is defined as 80%< substrate protein remaining %≤ 100%) | B ("B" is defined as 80%< substrate protein remaining %≤ 100%) | B ("B" is defined as 80%< substrate protein remaining %≤ 100%)
4 | O=C1CCN(N2C(=O)c3ccc(CN4CC5CCC(C4)N5C(c4ccccc4)c4ccccc4)cc3C2=O)C(=O)N1 [GT-06453, 5-((8-benzhydryl-3,8-diazabicyclo[3.2.1]octan-3-yl)methyl)-2-(2,4-dioxotetrahydropyrimidin-1(2H)-yl)isoindoline-1,3-dione] | B ("B" is defined as 80%< substrate protein remaining %≤ 100%) | B ("B" is defined as 80%< substrate protein remaining %≤ 100%) | B ("B" is defined as 80%< substrate protein remaining %≤ 100%) | B ("B" is defined as 80%< substrate protein remaining %≤ 100%) | A ("A" is defined as 0% ≤ substrate protein remaining % ≤ 80%) | B ("B" is defined as 80%< substrate protein remaining %≤ 100%)
5 | O=C1CCN(N2Cc3cc(CN4C5CCC4CN(C(c4ccccc4)c4ccccc4)C5)ccc3C2=O)C(=O)N1 [GT-06454, 1-(5-((3-benzhydryl-3,8-diazabicyclo[3.2.1]octan-8-yl)methyl)-1-oxoisoindolin-2-yl)dihydropyrimidine-2,4(1H,3H)-dione] | B ("B" is defined as 80%< substrate protein remaining %≤ 100%) | A ("A" is defined as 0% ≤ substrate protein remaining % ≤ 80%) | B ("B" is defined as 80%< substrate protein remaining %≤ 100%) | B ("B" is defined as 80%< substrate protein remaining %≤ 100%) | B ("B" is defined as 80%< substrate protein remaining %≤ 100%) | B ("B" is defined as 80%< substrate protein remaining %≤ 100%)
6 | O=C1CCN(N2C(=O)c3ccc(CN4C5CCC4CN(C(c4ccccc4)c4ccccc4)C5)cc3C2=O)C(=O)N1 [GT-06455, 5-((3-benzhydryl-3,8-diazabicyclo[3.2.1]octan-8-yl)methyl)-2-(2,4-dioxotetrahydropyrimidin-1(2H)-yl)isoindoline-1,3-dione] | B ("B" is defined as 80%< substrate protein remaining %≤ 100%) | A ("A" is defined as 0% ≤ substrate protein remaining % ≤ 80%) | B ("B" is defined as 80%< substrate protein remaining %≤ 100%) | B ("B" is defined as 80%< substrate protein remaining %≤ 100%) | B ("B" is defined as 80%< substrate protein remaining %≤ 100%) | B ("B" is defined as 80%< substrate protein remaining %≤ 100%)
7 | CC1(C)CCC(CN2CC3CC(C2)N3Cc2ccc3c(c2)C(=O)N(N2CCC(=O)NC2=O)C3=O)=C(c2ccc(Cl)cc2)C1 [GT-06457, 5-((3-((4'-chloro-5,5-dimethyl-3,4,5,6-tetrahydro-[1,1'-biphenyl]-2-yl)methyl)-3,6-diazabicyclo[3.1.1]heptan-6-yl)methyl)-2-(2,4-dioxotetrahydropyrimidin-1(2H)-yl)isoindoline-1,3-dione] | A ("A" is defined as 0% ≤ substrate protein remaining % ≤ 80%) | A ("A" is defined as 0% ≤ substrate protein remaining % ≤ 80%) | A ("A" is defined as 0% ≤ substrate protein remaining % ≤ 80%) | A ("A" is defined as 0% ≤ substrate protein remaining % ≤ 80%) | A ("A" is defined as 0% ≤ substrate protein remaining % ≤ 80%) | A ("A" is defined as 0% ≤ substrate protein remaining % ≤ 80%)
8 | CC1(C)CCC(CN2C3CC2CN(Cc2ccc4c(c2)CN(N2CCC(=O)NC2=O)C4=O)C3)=C(c2ccc(Cl)cc2)C1 [GT-06458, 1-(5-((6-((4'-chloro-5,5-dimethyl-3,4,5,6-tetrahydro-[1,1'-biphenyl]-2-yl)methyl)-3,6-diazabicyclo[3.1.1]heptan-3-yl)methyl)-1-oxoisoindolin-2-yl)dihydropyrimidine-2,4(1H,3H)-dione] | A ("A" is defined as 0% ≤ substrate protein remaining % ≤ 80%) | A ("A" is defined as 0% ≤ substrate protein remaining % ≤ 80%) | A ("A" is defined as 0% ≤ substrate protein remaining % ≤ 80%) | A ("A" is defined as 0% ≤ substrate protein remaining % ≤ 80%) | A ("A" is defined as 0% ≤ substrate protein remaining % ≤ 80%) | A ("A" is defined as 0% ≤ substrate protein remaining % ≤ 80%)
9 | CC1(C)CCC(CN2C3CC2CN(Cc2ccc4c(c2)C(=O)N(N2CCC(=O)NC2=O)C4=O)C3)=C(c2ccc(Cl)cc2)C1 [GT-06459, 5-((6-((4'-chloro-5,5-dimethyl-3,4,5,6-tetrahydro-[1,1'-biphenyl]-2-yl)methyl)-3,6-diazabicyclo[3.1.1]heptan-3-yl)methyl)-2-(2,4-dioxotetrahydropyrimidin-1(2H)-yl)isoindoline-1,3-dione] | A ("A" is defined as 0% ≤ substrate protein remaining % ≤ 80%) | A ("A" is defined as 0% ≤ substrate protein remaining % ≤ 80%) | A ("A" is defined as 0% ≤ substrate protein remaining % ≤ 80%) | A ("A" is defined as 0% ≤ substrate protein remaining % ≤ 80%) | A ("A" is defined as 0% ≤ substrate protein remaining % ≤ 80%) | A ("A" is defined as 0% ≤ substrate protein remaining % ≤ 80%)
10 | O=C1CCN(N2Cc3cc(CN4CCN(c5cccc(F)c5)CC4)ccc3C2=O)C(=O)N1 [GT-06701, 1-(5-((4-(3-fluorophenyl)piperazin-1-yl)methyl)-1-oxoisoindolin-2-yl)dihydropyrimidine-2,4(1H,3H)-dione] | B ("B" is defined as 80%< substrate protein remaining %≤ 100%) | B ("B" is defined as 80%< substrate protein remaining %≤ 100%) | A ("A" is defined as 0% ≤ substrate protein remaining % ≤ 80%) | A ("A" is defined as 0% ≤ substrate protein remaining % ≤ 80%) | B ("B" is defined as 80%< substrate protein remaining %≤ 100%) | B ("B" is defined as 80%< substrate protein remaining %≤ 100%)
11 | O=C1CCN(N2C(=O)c3ccc(CN4CCN(c5ccccc5)CC4)cc3C2=O)C(=O)N1 [GT-06719, 2-(2,4-dioxotetrahydropyrimidin-1(2H)-yl)-5-((4-phenylpiperazin-1-yl)methyl)isoindoline-1,3-dione] | B ("B" is defined as 80%< substrate protein remaining %≤ 100%) | B ("B" is defined as 80%< substrate protein remaining %≤ 100%) | B ("B" is defined as 80%< substrate protein remaining %≤ 100%) | B ("B" is defined as 80%< substrate protein remaining %≤ 100%) | B ("B" is defined as 80%< substrate protein remaining %≤ 100%) | A ("A" is defined as 0% ≤ substrate protein remaining % ≤ 80%)
